Measurements from patent EP0005299A1, “Substituted 1-phenyl-2,3,4,5-tetrahydro-1H-3-benzazepines, process for the preparation thereof, and pharmaceutical compositions containing them” (priority 1978, dated 1979).
Counter-ions that a name gives are not always drawn.

What was measured:
methamphetamine = assay: Methamphetamine reversal assay; format: in vivo, mice
[1] = Acute oral toxicity (LD50); conditions: mouse, in vivo; oral dose in mice
muricidal behavior = assay: Anti-muricide assay; format: in vivo, Male Long Evans rats; conditions: Rattus norvegicus, ip; rats, intraperitoneal injection, mouse presented at 30 and 60 minutes; dosage at which 50% of the tested rats do not kill mice
Experimental: Anti-muricide assay: Male Long Evans rats weighing 225-250 g are housed I rat per cage, and killers (rats show an instinctive mouse killing behavior (muricide)) are selected initially after being deprived of food for approximately 66 hours. This is the only time the rats are deprived of food. Food, ad libitum, is-avaiable on the cage floor since food bins are not practical because they afford a hiding place for mice. The rats are tested for muricidal behavior the following day and once a week thereafter; non-killers are always eliminated. A non-killer is a rat which fails to kill a mouse placed into his cage within 5 minutes. Drugs are tested in the afternoon of the day following this weekly check for persistance of the killing behavior. Since the rats are not deprived of food or water and rarely attempt to eat the mouse, this behavior is not motivated by hunger. Four weeks after the first test for killing, the rats are injected, i.p., with placebo and then tested 30/60 minutes after the injection. […] Only rats that consistantly kill mice placed in their home cages are used for drug testing. Every treatment-group is comprised of 5 rats. […] Blockade of muricidal behavior is determined by observing the number of surviving mice 5 minutes after being introduced into the rat cages.

| Compound | protection from methamphetamine lethality (methamphetamine; control, perphenazine at 1 mg/kg, aggregated mice, methamphetamine 15 mg/kg i.p.) | LD50 [1] [mg/kg] | ED50 (muricidal behavior) [mg/kg] | ED50 (methamphetamine; Mus musculus, po, 4 h) [mg/kg] |
| --- | --- | --- | --- | --- |
| OCCN1CCN(CCCN2c3ccccc3Sc3ccc(Cl)cc32)CC1 [perphenazine, reference compound] | complete protection | – | – | – |
| CN1CCc2cc(Cl)c(OC(=O)N(C)C)cc2[C@H](c2ccccc2)C1 [(S)-7-chloro-8-dimethylaminocarbonyloxy-3-methyl-1-phenyl-2,3,4,5-tetrahydro-lH-3-benzazepine hydrochloride] | – | > 300 | 5.7 | 1.2 |
